US20240197729A1, “ALK-5 Inhibitors and Uses Thereof” (Sumitomo Pharma Oncology, Inc., priority 2021, published 2024)
Like-named read-outs stand apart in the source and are kept apart here.

Legend:
[1] = test system: phospho-SMAD-2 (Ser465/Ser467); test: A549 xenograft assay, p-SMAD2; type: in vivo, mice; conditions: for Average % p-SMAD2 (Ser 465/467) of vehicle: tumors 4 h after dosing; for efficacious dose derived from p-SMAD2 inhibition in the A549 xenograft mouse model: per oral gavage
Text: To test compounds for inhibition of in vivo on-target activity (ALK5/TGF-bR1 inhibition) as well as potential Janus Kinase (JAK) signaling off-target activity, the A549 murine xenograft model was utilized. An ALK5 inhibitor (e.g., vactosertib) is expected to reduce the amount of the TGF-beta signaling molecule phospho-SMAD-2 (pSMAD2) in the A549 xenograft cells. The TGF-beta-mediated phosphorylation of SMAD2 in A549 cells takes place at amino acid residue four hundred and sixty-five and four hundred and sixty-seven (both are serine residues). A JAK inhibitor (e.g., ruxolitinib) is expected to reduce the phosphorylation of signal transducer and activator of transcription (STAT) proteins such as STAT3 at amino acid residue 705 (tyrosine).
At eight weeks of age, female athymic nude mice (purchased from Charles River) were injected with approximately 3.5 million A549 cells (ATCC, CCL-185). Specifically, cells were harvested and resuspended in plain RPMI media (no phenol red added) and Matrigel (Corning 356237) at a one to one ratio, and two hundred-microliters were injected into the right hind flank of each mouse. Tumors were measured every three days by caliper and as tumors reached an average of seventy-eighty millimeters cubed, mice were randomized in groups of three. All compounds were resuspended in 1-methyl-2-pyrrolidinone (Sigma 494496) (10%) plus 20% Solutol (Sigma 42966) in water (90%). Vactosertib and ruxolitinib were included as controls as ALK5 signaling inhibitor and JAK signaling inhibitor, respectively. Both controls were given at seventy-five milligrams per kilogram to three mice. The drug suspensions were sonicated for fifteen minutes to generate a fine particle suspension before being given to the mice. Mice were dosed (per oral gavage) with drug at one hundred, seventy-five, fifty, or ten milligrams per kilogram, with three mice per group. A vehicle control group with three mice was used to establish the baseline level of phospho-SMAD-2 in the tumor xenograft.
Four hours after drug administration, tumors were harvested, snap frozen and stored at negative eighty degrees Celsius until further processing. The phospho-SMAD-2 levels were determined using the Bio-Plex Pro™ Phospho-Smad2 (Ser465/Ser467) Set (BioRad 171V50019M). The phospho STAT3 levels were determined using the bead/antibody set from the MILLIPLEXMAP STAT Cell Signaling Magnetic Bead 5-Plex Kit (Millipore 48-610MAG). Both phospho SMAD-2 levels and phospho STAT3 levels were normalized to ß-Tubulin (MILLIPLEX MAP ß-Tubulin Total Magnetic Bead MAPmate™, Millipore 46-713MAG) or GAPDH (MILLIPLEX MAP GAPDH Total Magnetic Bead MAPmate™, Millipore 46-667MAG) levels from each sample. All analytes were analyzed in a multiplex fashion with the Bio-Plex Pro Cell Signaling Reagent Kit (BioRad 171304006M). Briefly, frozen tumor (fifteen to thirty milligrams) was lysed in 100 μl lysis buffer, processed in bead mill tube, and centrifuged. The resulting lysate was used at 1:50 dilution for the assay according to the manufacturer's instructions. Bead suspension was analyzed using the Luminex system (MAGPIX).

[2] = test system: BMP-6/ALK2/Hepcidin pathway; test: ALK2 off-target assay, hepcidin mRNA in HepG2 hepatocytes; type: cell-based, human; conditions: Homo sapiens; HepG2, 40 ng/ml BMP-6, 3 h; read-out: IC50, hepcidin mRNA expression
Method: In this study, LDN214117 (an ALK2 inhibitor available from Selleck Chemicals S7627) was included as a positive control, and vactosertib (an ALK5 inhibitor available from MedChem Express HY-19928) was included as a negative control.
HepG2 human hepatocytes (ATCC HB-8065) were seeded in EMEM (ATCC30-2003)+10% FBS in 96-well plate and allowed to grow overnight at 5% CO2 at 37° C. The next day, cells were pre-treated with selected compounds (Compound 01, 04 or 05) or one of the control compounds at various concentrations, or with vehicle (DMSO) for one hour. Cells were then stimulated with recombinant human BMP-6 (R&D Systems 507-BP-020) at a final concentration of 40 ng/ml, in the presence of test compound or DMSO for three hours. A no-BMP-6 stimulation condition was included for baseline hepcidin level measurement.
Hepcidin mRNA expression was measured by real-time RT-PCR with Cells-to-CT 1-Step TaqMan Kit (ThermoFisher A25603) following manufacturer's instructions. GAPDH levels were measured, and served as a normalization control. Hepcidin primer: TaqMan HAMP-FAM/MGB 20×(ThermoFisher 4331182); GAPDH primer: TaqMan GAPDH-VIC/MGB 20×(ThermoFisher 4326317E). Delta-delta Ct method was used to obtain relative Hepcidin expression.
The selected compounds and control compounds LDN214117 and vactosertib were tested at drug concentrations of 20 micromolar to 1.22 nanomolar at 4-fold serial dilution. All wells contained the same DMSO concentrations. IC50 values were calculated using nonlinear regression model with GraphPad Prism software. The results of the ALK-2 off-target assay are reported in Table 3B, where “++” indicates 0.1 μM<IC50≤1 μM and “+++” indicates […].

[3] = test system: TGF-β1-mediated αSMA expression; test: Fibroblast to myofibroblast transformation (FMT) assay; conditions: for IC50: Homo sapiens, Fibroblast; for inhibition of TGF-β1-mediated αSMA expression: all three IPF donors; for loss of nuclei: donor IPF03, highest test concentration (10 μM); for modulation of the number of nuclei: donors IPF06 and IPF08; for Potentially toxic concentration: lowest concentration with >25% loss of nuclei
Method: To test the ability of selected compounds to inhibit the TGF-β1-dependent transition of fibroblasts to myofibroblasts in a relevant disease model of IPF, an FMT assay was performed using lung fibroblasts from IPF patients. In this assay, the transition of fibroblasts to myofibroblasts is determined by the expression of the biomarker alpha smooth muscle actin (α-SMA).
Primary human bronchial fibroblasts derived from IPF patients were seeded on day zero and the media was refreshed on day two. On day five, selected compounds or controls were added at an eight-point concentration response curve starting at 10 μM (semi-log dilutions). Each drug concentration condition was evaluated in biological duplicates. […] Seventy-two hours following TGF-beta addition, the cells were fixed with formaldehyde. High content imaging evaluating cell number using the nuclear stain DAPI as well as the expression of a-SMA was performed. The following controls were run alongside the selected compounds: vactosertib and the approved IPF drug nintedanib (at an eight-point, semi-log curve with 10 μM starting concentration). As a negative control 0.1% DMSO was also used, matching the DMSO concentration in treated wells. The following calculations were used to determine cell number as well as percent inhibition (PIN) of alpha SMA expression:
• Segmentation and quantification of αSMA immunoreactivity by an HCA algorithm, with density×area (D×A) output • Data normalization of raw αSMA (D×A) to percentage inhibition (PIN) values, on a plate-to-plate basis
• DAPI fluorescence applied for HCA-based quantification of the number of imaged cells, on a plate-to-plate basis
[formula] • μn is the average numbers of nuclei of the vehicle control (TGF-β1+0.1% DMSO) • Xi is the compound number of nuclei

[4] = read-out: Average IC50 (nM), average of donors IPF03, IPF06, IPF08
[5] = read-out: IC50 αSMA, donor IPF03
[6] = read-out: IC50 αSMA, donor IPF06
[7] = read-out: IC50 αSMA, donor IPF08
[8] = read-out: pIC50 αSMA, donor IPF03 (converted)
[9] = read-out: pIC50 αSMA, donor IPF06 (converted)
[10] = read-out: pIC50 αSMA, donor IPF08 (converted)

SMILES | Average % p-SMAD2 (Ser 465/467) of vehicle ([1]; 75 mg/kg per oral gavage) [%] | IC50 [2] [nM] | IC50 [3, 4] [nM] | IC50 [3, 5] [nM] | IC50 [3, 6] [nM] | IC50 [3, 7] [nM] | IC50 [3, 8] [nM] | IC50 [3, 9] [nM] | IC50 [3, 10] [nM] | Max PIN (%) ([3]; donor IPF03) | Max PIN (%) ([3]; donor IPF06) | Max PIN (%) ([3]; donor IPF08) | Average % p-SMAD2 (Ser 465/467) of vehicle ([1]; 10 mg/kg per oral gavage) [%] | Average % p-SMAD2 (Ser 465/467) of vehicle ([1]; 50 mg/kg per oral gavage) [%] | Average % p-SMAD2 (Ser 465/467) of vehicle ([1]; 100 mg/kg per oral gavage) [%] | efficacious dose derived from p-SMAD2 inhibition in the A549 xenograft mouse model [1] | inhibition of TGF-β1-mediated αSMA expression [3] | loss of nuclei [3] [%] | modulation of the number of nuclei [3] | Potentially toxic concentration ([3]; donor IPF03) | further results
Cc1cccc(-c2[nH]c(CNc3ccccc3F)nc2-c2ccc3ncnn3c2)n1 [Vactosertib, vactosertib, reference compound] | 32 | ≥ 1000 | 38.3 | 50 | 40 | 25 | 50.1 | 39.8 | 25.1 | 105 | 104 | 102 | – | – | – | – | – | – | – | – | –
Clc1cccc2c(Nc3ccnc(Nc4cccc(N5CCOCC5)c4)c3)cnnc12 [Compound 04, N4-(8-chlorocinnolin-4-yl)-N2-[3-(morpholin-4-yl)phenyl]pyridine-2,4-diamine] | 6 | 100 to 1000 | 40 | 40 | 50 | 30 | 39.8 | 50.1 | 31.6 | 107 | 106 | 100 | 69 | 13 | 7 | fifty | full concentration-dependent inhibition | < 25 | No modulation of the number of nuclei was observed | – | inhibition of the biomarker p-SMAD2 ([1]; seventy-five milligrams per kilogram): 94%
Cc1cccc2c(Nc3ccnc(Nc4ccc(N5CCOCC5)cc4)c3)cnnc12 [Compound 05, N4-(8-methylcinnolin-4-yl)-N2-[4-(morpholin-4-yl)phenyl]pyridine-2,4-diamine] | 11 | 100 to 1000 | 50 | 60 | 50 | 40 | 63.1 | 50.1 | 39.8 | 106 | 106 | 101 | 136 | 74 | 13 | – | – | – | – | 5.0 | –
Cc1nn(CC(F)(F)F)cc1Nc1cc(Nc2cnnc3c(C)cccc23)ccn1 [Compound 01, N2-[3-methyl-1-(2,2,2-trifluoroethyl)-1H-pyrazol-4-yl]-N4-(8-methylcinnolin-4-yl)pyridine-2,4-diamine] | 13 | ≥ 1000 | 83.3 | 100 | 100 | 50 | 100 | 100 | 50.1 | 106 | 107 | 101 | 97 | 33 | 8 | seventy-five | full concentration-dependent inhibition | > 25 | No modulation of the number of nuclei was observed | 5.0 | –
